Laboratory results reported in US20240415845A1, “Compositions of Iboga Alkaloids and Methods of Treatment” (priority 2022, published 2024).

System: special operations veterans with combat and/or blast exposure
Assay: Functional MRI: resting-state functional connectivity and lag projection analysis
Format: in vivo, human
Procedure: Functional magnetic resonance imaging (fMRI) was performed on the subjects enrolled in the study described in Example 1. Neuroimaging is a branch of medical imaging that focuses on the brain. It utilizes techniques of physics, optics, and mathematics to quantify brain structure and function. […] During resting, subjects are asked to do nothing and the aim is to observe the brain at rest. When the subject is asked to perform a task, the aim is to observe how the brain works in response to the task. Other magnetic resonance based imaging techniques include: anatomical, which measures cortical thickness, area, gyrification, and volume: arterial spin labelling, which quantitatively measures tissue perfusion, cerebral blood flow, where perfusion refers to the delivery of oxygen and nutrients to tissue by means of blood flow: and, diffusion tensor imaging, which measures diffusion of water through white natter, such as neural fiber tracts. fMRI can provide a series of images that form a film, as opposed to a single image obtained in MRI.
The human brain is a series of well-organized and optimized series of efficient networks. […] The functional connectivity networks evaluated in a region of interest in the brain included those identified in Table 2-1 of Example 2.
fMRI data was also analyzed to inspect activity patterns as a function of time. […]

Compound: CCC1CC2CC3c4[nH]c5ccc(OC)cc5c4CCN(C2)C13 (centres unmarked) [ibogaine, Ibogaine]
- lag projection of BOLD fMRI in left orbitofrontal gyrus and inferior frontal gyrus (baseline vs about four days post treatment, paired T-test, fwec p<0.001): relative slowing
- functional connection pairs in the brain networks reorganized (resting state functional connectivity) (within a few days after treatment, persisted to one-month post treatment): 22
